Data: EP4603105A1, “PHARMACEUTICAL COMPOSITION CONTAINING CYCLIC COMPOUND HAVING SELECTIVE KRAS INHIBITORY EFFECT AGAINST HRAS AND NRAS” (CHUGAI SEIYAKU KABUSHIKI KAISHA, priority 2022, dated 2024)

Experiments:
[1] = molecular target: GDP-bound KRAS wild-type protein (Homo sapiens, UniProt P01116); assay: Binding to KRAS by surface plasmon resonance (SPR), dissociation constant KD; settings: 1:1 binding model
Procedure, shortened: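 Compound binding is evaluated by SPR single-cycle kinetics, with concentrations added intermittently from low to high for 75 s each. Target surfaces carry GDP-loaded biotinylated Avi-RAS at about 100–300 RU, regenerated after each cycle; temperature 30°C. A 1:1 binding model gives KD.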

[2] = molecular target: GDP-bound NRAS wild-type protein (Homo sapiens, UniProt P01111); assay: Binding to NRAS by surface plasmon resonance (SPR), KD and KD ratio to KRAS; settings: ratio of KD for GDP-bound NRAS wild-type protein to KD for KRAS
Procedure, shortened: (§1)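 GDP-bound biotin-Avi RAS captured at ~100–300 RU, 30°C, pH 7.4 HBS containing 10 µM GDP, 10 mM MgCl2, 1 mM DTT, 0.01% Tween 20 and 4% DMSO. KD by 1:1 fitting.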

HRAS wild-type protein = HRAS wild-type protein (Homo sapiens, UniProt P01112); assay: Binding to HRAS by surface plasmon resonance (SPR), KD and KD ratio to KRAS; settings: ratio of KD for HRAS wild-type protein to KD for KRAS
Procedure, shortened: as §1

[3] = system: human lung cancer strain NCI-H441; format: cell-based
Procedure, shortened: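 Readout: […] after the ATP-based reagent. Compound: serial dilutions in dimethyl sulfoxide.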

GDP-bound KRAS wild-type protein, sequence (P01116 1-188 isoform P01116-2): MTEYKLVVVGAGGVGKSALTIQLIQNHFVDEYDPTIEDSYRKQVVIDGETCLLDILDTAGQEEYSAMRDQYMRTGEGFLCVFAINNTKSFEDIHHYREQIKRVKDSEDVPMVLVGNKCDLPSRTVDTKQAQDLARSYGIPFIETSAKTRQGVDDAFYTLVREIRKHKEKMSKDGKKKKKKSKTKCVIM
GDP-bound NRAS wild-type protein, sequence (P01111 whole entry): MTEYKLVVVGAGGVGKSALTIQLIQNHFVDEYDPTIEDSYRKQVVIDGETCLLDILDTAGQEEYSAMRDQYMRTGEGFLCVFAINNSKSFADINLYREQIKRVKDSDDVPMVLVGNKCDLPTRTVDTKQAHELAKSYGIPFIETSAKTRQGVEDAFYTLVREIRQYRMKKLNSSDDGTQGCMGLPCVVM
HRAS wild-type protein, sequence (P01112 whole entry): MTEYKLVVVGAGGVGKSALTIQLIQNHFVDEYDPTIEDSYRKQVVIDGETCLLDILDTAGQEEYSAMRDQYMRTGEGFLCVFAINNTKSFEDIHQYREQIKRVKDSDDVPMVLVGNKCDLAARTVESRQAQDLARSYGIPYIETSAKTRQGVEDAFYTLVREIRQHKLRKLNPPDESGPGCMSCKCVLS

Row | SMILES | Kd [1] | NRAS /KRAS [2] | HRAS /KRAS (HRAS wild-type protein) | IC50 [3]
1 | CCO[C@@H]1C[C@H]2C(=O)NC3(CC(C)(C)C3)C(=O)N(C)[C@@H](C3CCCC3)C(=O)N(C)[C@H](C(=O)N(C)C)CC(=O)N(C)[C@@H]([C@H](C)OC)C(=O)N[C@@H]([C@@H](C)CC)C(=O)N(C)CC(=O)N(C)[C@H]3C/C=C\CCN(C3=O)[C@@H](Cc3ccc(C)cc3)C(=O)N(C)CC(=O)N[C@@H](CCc3ccc(C(F)(F)F)c(OC)c3)C(=O)N2C1 [PP3185] | 0.12 nM | A (a compound having 10 or more and less than 20 is denoted as A) | A (a compound having 10 or more and less than 20 is denoted as A) | 16.1 nM
2 | CCO[C@@H]1C[C@H]2C(=O)NC3(CC(C)(C)C3)C(=O)N(C)[C@@H](C3CCCC3)C(=O)N(C)[C@H](C(=O)N(C)C)CC(=O)N(C)[C@@H]([C@H](C)OC)C(=O)N[C@@H]([C@@H](C)CC)C(=O)N(C)CC(=O)N(C)[C@H]3C/C=C\CCN(C3=O)[C@@H](Cc3ccc(C)cc3)C(=O)N(C)CC(=O)N[C@@H](CCc3cc(F)c(C(F)(F)F)c(F)c3)C(=O)N2C1 [PP3187] | 0.082 nM | A (a compound having 10 or more and less than 20 is denoted as A) | A (a compound having 10 or more and less than 20 is denoted as A) | 10.4 nM
3 | CCO[C@@H]1C[C@H]2C(=O)NC3(CC(C)(C)C3)C(=O)N(C)[C@@H](C3CCCC3)C(=O)N(C)[C@H](C(=O)N(C)CC)CC(=O)N(C)[C@@H]([C@@H](C)OC)C(=O)N[C@@H]([C@@H](C)CC)C(=O)N3CCC[C@H]3C(=O)N(C)[C@H]3C/C=C\CCN(C3=O)[C@@H](Cc3ccc(C)cc3)C(=O)N(C)CC(=O)N[C@@H](CCc3ccc(C(F)(F)F)c(OC)c3)C(=O)N2C1 [PP3188] | 0.99 nM | A (a compound having 10 or more and less than 20 is denoted as A) | A (a compound having 10 or more and less than 20 is denoted as A) | 64.7 nM
4 | CCO[C@@H]1C[C@H]2C(=O)NC3(CC(C)(C)C3)C(=O)N(C)[C@@H](C3CCCC3)C(=O)N(C)[C@H](C(=O)N(C)C)CC(=O)N(C)[C@@H]([C@H](C)OC)C(=O)N[C@@H]([C@@H](C)CC)C(=O)N(C)CC(=O)N(C)[C@H]3C/C=C\CCN(C3=O)[C@@H](Cc3ccc(C)cc3)C(=O)N(C)CC(=O)N[C@@H](CCc3ccc(C(F)(F)F)c(Cl)c3)C(=O)N2C1 [PP3189] | 0.12 nM | A (a compound having 10 or more and less than 20 is denoted as A) | A (a compound having 10 or more and less than 20 is denoted as A) | 18.5 nM
5 | CCO[C@@H]1C[C@H]2C(=O)NC3(CC(C)(C)C3)C(=O)N(C)[C@@H](C3CCCC3)C(=O)N(C)[C@H](C(=O)N(C)CC)CC(=O)N(C)[C@@H]([C@@H](C)OC)C(=O)N[C@@H]([C@@H](C)CC)C(=O)N3CCC[C@H]3C(=O)N(C)[C@H]3C/C=C\CCN(C3=O)[C@@H](Cc3ccc(C)cc3)C(=O)N(C)CC(=O)N[C@@H](CCc3cc(F)c(C(F)(F)F)c(F)c3)C(=O)N2C1 [PP3190] | 0.87 nM | A (a compound having 10 or more and less than 20 is denoted as A) | B (a compound having 3 or more and less than 10 is denoted as B) | 29.9 nM
6 | CCO[C@@H]1C[C@H]2C(=O)NC3(CC(C)(C)C3)C(=O)N(C)[C@@H](C3CCCC3)C(=O)N(C)[C@H](C(=O)N(C)C)CC(=O)N(C)[C@@H]([C@H](C)OC)C(=O)N[C@@H]([C@@H](C)CC)C(=O)N(C3CC3)CC(=O)N(C)[C@H]3C/C=C\CCN(C3=O)[C@@H](Cc3ccc(C)cc3)C(=O)N(C)CC(=O)N[C@@H](CCc3ccc(C(F)(F)F)c(OC)c3)C(=O)N2C1 [PP3191] | 0.49 nM | A (a compound having 10 or more and less than 20 is denoted as A) | A (a compound having 10 or more and less than 20 is denoted as A) | 38.9 nM
7 | CCO[C@@H]1C[C@H]2C(=O)NC3(CC(C)(C)C3)C(=O)N(C)[C@@H](C3CCCC3)C(=O)N(C)[C@H](C(=O)N(C)CC)CC(=O)N(C)[C@@H]([C@@H](C)OC)C(=O)N[C@@H]([C@@H](C)CC)C(=O)N3CCC[C@H]3C(=O)N(C)[C@H]3C/C=C\CCN(C3=O)[C@@H](Cc3ccc(C)cc3)C(=O)N(C)CC(=O)N[C@@H](CCc3ccc(C(F)(F)F)c(Cl)c3)C(=O)N2C1 [PP3192] | 0.96 nM | A (a compound having 10 or more and less than 20 is denoted as A) | A (a compound having 10 or more and less than 20 is denoted as A) | 41.3 nM
8 | CCO[C@@H]1C[C@H]2C(=O)NC3(CC(C)(C)C3)C(=O)N(C)[C@@H](C3CCCC3)C(=O)N(C)[C@H](C(=O)N(C)C)CC(=O)N(C)[C@@H]([C@H](C)OC)C(=O)N[C@@H]([C@@H](C)CC)C(=O)N(C3CC3)CC(=O)N(C)[C@H]3C/C=C\CCN(C3=O)[C@@H](Cc3ccc(C)cc3)C(=O)N(C)CC(=O)N[C@@H](CCc3cc(F)c(C(F)(F)F)c(F)c3)C(=O)N2C1 [PP3193] | 0.35 nM | A (a compound having 10 or more and less than 20 is denoted as A) | A (a compound having 10 or more and less than 20 is denoted as A) | 21.1 nM
9 | CCO[C@@H]1C[C@H]2C(=O)NC3(CC(C)(C)C3)C(=O)N(C)[C@@H](C3CCCC3)C(=O)N(C)[C@H](C(=O)N(C)C)CC(=O)N(C)[C@@H]([C@H](C)OC)C(=O)N[C@@H]([C@@H](C)CC)C(=O)N(C3CC3)CC(=O)N(C)[C@H]3C/C=C\CCN(C3=O)[C@@H](Cc3ccc(C)cc3)C(=O)N(C)CC(=O)N[C@@H](CCc3ccc(C(F)(F)F)c(Cl)c3)C(=O)N2C1 [PP3195] | 0.41 nM | A (a compound having 10 or more and less than 20 is denoted as A) | A (a compound having 10 or more and less than 20 is denoted as A) | 22.2 nM
10 | CCO[C@@H]1C[C@H]2C(=O)NC3(CC(C)(C)C3)C(=O)N(C)[C@@H](C3CCCC3)C(=O)N(C)[C@H](C(=O)N(C)C)CC(=O)N(C)[C@@H]([C@H](C)OC)C(=O)N[C@@H]([C@@H](C)CC)C(=O)N3CCC[C@H]3C(=O)N(C)[C@H]3C/C=C\CCN(C3=O)[C@@H](Cc3ccc(C)cc3)C(=O)N(C)CC(=O)N[C@@H](CCc3ccc(C(F)(F)F)c(OC)c3)C(=O)N2C1 [PP3197] | 1.4 nM | A (a compound having 10 or more and less than 20 is denoted as A) | A (a compound having 10 or more and less than 20 is denoted as A) | 130 nM
11 | CCO[C@@H]1C[C@H]2C(=O)NC3(CC(C)(C)C3)C(=O)N(C)[C@@H](C3CCCC3)C(=O)N(C)[C@H](C(=O)N(C)C)CC(=O)N(C)[C@@H]([C@H](C)OC)C(=O)N[C@@H]([C@@H](C)CC)C(=O)N3CCC[C@H]3C(=O)N(C)[C@H]3C/C=C\CCN(C3=O)[C@@H](Cc3ccc(C)cc3)C(=O)N(C)CC(=O)N[C@@H](CCc3cc(F)c(C(F)(F)F)c(F)c3)C(=O)N2C1 [PP3199] | 0.8 nM | A (a compound having 10 or more and less than 20 is denoted as A) | A (a compound having 10 or more and less than 20 is denoted as A) | 49.6 nM
12 | CCO[C@@H]1C[C@H]2C(=O)NC3(CC(C)(C)C3)C(=O)N(C)[C@@H](C3CCCC3)C(=O)N(C)[C@H](C(=O)N(C)C)CC(=O)N(C)[C@@H]([C@@H](C)OC)C(=O)N[C@@H]([C@@H](C)CC)C(=O)N(C3CC3)CC(=O)N(C)[C@H]3C/C=C\CCN(C3=O)[C@@H](Cc3ccc(C(F)(F)F)cc3)C(=O)N(C)CC(=O)N[C@@H](CCc3ccc(C(F)(F)F)c(OC)c3)C(=O)N2C1 [PP3200] | 0.21 nM | A (a compound having 10 or more and less than 20 is denoted as A) | A (a compound having 10 or more and less than 20 is denoted as A) | 7.1 nM
13 | CCO[C@@H]1C[C@H]2C(=O)NC3(CC(C)(C)C3)C(=O)N(C)[C@@H](C3CCCC3)C(=O)N(C)[C@H](C(=O)N(C)C)CC(=O)N(C)[C@@H]([C@@H](C)OC)C(=O)N[C@@H]([C@@H](C)CC)C(=O)N3CCC[C@H]3C(=O)N(C)[C@H]3C/C=C\CCN(C3=O)[C@@H](Cc3ccc(C(F)(F)F)cc3)C(=O)N(C)CC(=O)N[C@@H](CCc3ccc(C(F)(F)F)c(OC)c3)C(=O)N2C1 [PP3204] | 0.4 nM | A (a compound having 10 or more and less than 20 is denoted as A) | A (a compound having 10 or more and less than 20 is denoted as A) | 29.2 nM
14 | CCO[C@@H]1C[C@H]2C(=O)NC3(CC(C)(C)C3)C(=O)N(C)[C@@H](C3CCCC3)C(=O)N(C)[C@H](C(=O)N(C)C)CC(=O)N(C)[C@@H]([C@@H](C)OC)C(=O)N[C@@H]([C@@H](C)CC)C(=O)N3CCC[C@H]3C(=O)N(C)[C@H]3C/C=C\CCN(C3=O)[C@@H](Cc3ccc(C(F)(F)F)cc3)C(=O)N(C)CC(=O)N[C@@H](CCc3cc(F)c(C(F)(F)F)c(F)c3)C(=O)N2C1 [PP3205] | 0.39 nM | A (a compound having 10 or more and less than 20 is denoted as A) | A (a compound having 10 or more and less than 20 is denoted as A) | 18.4 nM
